Laboratory results reported in patent US7060290B1, “Phosphocholine linked prodrug derivatives” (Supergen, Inc., priority 1999, dated 2006).
“Also recorded” adds a separate entry of the source.

Tests used:
[1] = First-pass inactivation in the liver after oral administration; settings: phosphocholine-derivatized form; stated as believed
From the text: Subsequently, only a fraction of a percent of the administered drug is biologically available for function. […] When the phosphocholine moiety is removed by an esterase, such as phospholipase C, sphingomyelinase, etc., then the parent compound will be available for binding and function in the target tissue. Glucuronidation would only occur on its return to the liver after removal of the phosphocholine moiety.

[2] = tested on: cutaneous hypersensitivity immune response; test: DNCB-induced cutaneous contact hypersensitivity (ear swelling) in mice; format: in vivo, mice (Balb/c); settings: for Effect on DNCB-induced cutaneous hypersensitivity immune response: 100 μg/day/mouse subcutaneously, twelve-day study, ear rechallenge with 1% DNCB, swelling on days 7–12; for Effect of dexamethasone on the response to the hormone: co-administered with dexamethasone, days 7–12
Description: The effects of DHEA-PC on cutaneous contact hypersensitivity was studied. In this study, mice (Balb/c) were immunologically challenged with DNCB (2% in ethanol) applied to a 2 cm area on the back. The steroid was injected subcutaneously (100 μg/day/mouse) throughout the twelve-day study period. Ears were rechallenged with DNCB (1% in ethanol) on days 7–12 and swelling was measured daily in order to evaluate the effect on the immune system.

[3] = Water/benzene extraction of the tritiated DHEA-phosphocholine reaction product, phases counted by scintillation; format: physicochemical
Description: A dehydroepiandrosterone(DHEA)-phosphocholine derivative was synthesized as follows: 1 mg of phosphocholine (calcium salt; Sigma Chemical, St. Louis, Mo.) was dissolved in 0.5 ml of formamide (Cat # S-7503; Lot # 55HO257; Sigma Chemical) and 0.5 ml of pyridine (Cat # P-4036; Lot # 55H1489; Sigma Chemical). 0.025 mCi of (1,2,6,7 ^3H(n)-Dehydroepiandrosterone (Cat # NET814; Lot # 3146097; 89.2 Ci/mmol; Dupont, NEN Products, Boston, Mass.) in 0.025 ml of ethanol was added. The reaction was catalyzed by the addition (as the dry solid) of 5 mg of dicyclohexylcarbodiimide (Cat # D-3129; Lot # 34hO647; Sigma Chemical). The reaction mixture was incubated overnight at room temperature. In the morning, 9 ml of water was added and the mixture extracted 3 times with 10 ml portions of benzene. The benzene extracts were combined and aliquots of both phases were counted in a scintillation counter. The results are set forth below:
The aqueous layer was re-extracted with benzene. The second benzene extraction yielded 272 cpm (0.01 M1) as a confirmation.
Free DHEA starting material would have been extracted quantitatively into benzene with this protocol.

[4] = tested on: neutral sphingomylenase; test: Hydrolysis of DHEA-PC by neutral sphingomylenase; format: biochemical
Description: DHEA-phosphocholine (DHEA-PC) was synthesized by sequential reaction of DHEA, choline, and water with phosphorous oxychloride. The synthetic product had the same HPLC retention time and the same mass-spectrum as did the endogenous, actual compound. […] When human serum extracts were analyzed, mass fragments were detected at the same retention time as synthetic material.

[5] = J. Med. Chem. 39:2156–2169, 1996; cited from earlier work
[6] = tested on: enzyme on lymphocyte cell membrane that cleaves phosphocholine; test: Lymphocyte cell membrane enzyme that cleaves phosphocholine from other compounds; format: cell-based; settings: lymphocytes; data not shown
From the text: The conjugated therapeutic agents will be at least ten times more water soluble then the original alcohol. This will increase their bioavailability and decrease their metabolism to, e.g., the 3-glycoside in the case of steroids, which should be a major excretion pathway. The decreased glycoside formation will be caused by the presence of the phosphoester at that site. The derivative is not expected to be active prior to hydrolysis of the phospholipid group. […] The activity of this enzyme is stimulated ten-fold by TGF-α (data not shown). Without wishing to be bound by theory, it is believed that use of phospholipid-conjugated antibiotics of the present invention will lead to high concentrations of active agents at the site of an infection by the following mechanism. Lymphocytes are attracted to the site of an infection or inflammation where they release TGF-α, which, in turn, stimulates phospholipid hydrolysis in other subtypes. This same process will lead to local release of an active form of the antibiotic from the phospholipid diester conjugate. Because of the response of the enzyme to local concentrations of TGF-α, there should be a correspondingly high local concentration of the antibiotic. This will lead to effective therapy and lower toxicity.

In the case of `C[C@]12CC[C@@H](OP(=O)([O-])OCC[N+](C)(C)C)C[C@H]1CC[C@@H]1[C@@H]2CC[C@]2(C)C(=O)CC[C@@H]12`, the “Fraction not metabolized at each pass through the liver” value [1] was “about 80%”.
In the case of `C[C@]12CC[C@H](O)CC1=CC[C@@H]1[C@@H]2CC[C@]2(C)C(=O)CC[C@@H]12` [DHEA, dehydroepiandrosterone], the “Effect on DNCB-induced cutaneous hypersensitivity immune response” value [2] was “similar, high level response” and the “Effect of dexamethasone on the response to the hormone” value (from here on “Effect of dexamethasone”) [2] was “not suppressed by dexamethasone”.
In the case of `C[C@]12CC[C@H](OP(=O)([O-])OCC[N+](C)(C)C)CC1=CC[C@@H]1[C@@H]2CC[C@]2(C)C(=O)CC[C@@H]12` [DHEA-PC, DHEA-3-Phosphocholine], the “Effect on DNCB-induced cutaneous hypersensitivity immune response” value [2] was “potentiated dinitrochlorobenzene-induced sensitization; also recorded: enhanced the cutaneous hypersensitivity immune response”, the “Effect of dexamethasone” value [2] was “not suppressed by dexamethasone” and the “Radioactivity in second benzene extraction” value ([3]; 0.01 M1, re-extraction of the aqueous layer with benzene) was 272 cpm. For the same molecule, the “Radioactivity in aqueous phase” value ([3]; 0.01 ml aliquot, after 3 extractions with 10 ml benzene, 3H label) was 10,729 cpm, the “Radioactivity in benzene phase” value ([3]; 0.01 ml aliquot, combined benzene extracts, 3H label) was 1,121 cpm and the “Phase in which the reaction product stays (hydrophilic character)” value ([3]; water/benzene, free DHEA would have been extracted quantitatively into benzene) was “remains in the aqueous phase”. For the same molecule, the “Hydrolysis by neutral sphingomylenase” value [4] was “hydrolyzed”.
In the case of `C[C@]12CC[C@H](OS(=O)(=O)O)CC1=CC[C@@H]1[C@@H]2CC[C@]2(C)C(=O)CC[C@@H]12` [DHEA-sulfate], the “Effect on DNCB-induced cutaneous hypersensitivity immune response” value [2] was “similar, high level response” and the “Effect of dexamethasone” value [2] was “not suppressed by dexamethasone”.
For `O=C1N(Cc2ccc(CO)cc2)[C@H](Cc2ccccc2)[C@H](O)[C@@H](O)[C@@H](Cc2ccccc2)N1Cc1ccc(CO)cc1` [DMP-323], the Aqueous solubility [5] is listed as “low”.
With “TGF-α: factor released by lymphocytes that stimulates phospholipid hydrolysis” the “Stimulation of the activity of the phosphocholine-cleaving enzyme” value [6] was “ten-fold”.
